From PubChem BioAssay (NCI)
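Interpolation was linear, between the two tested concentrations surrounding the appropriate level; five concentrations were tested over 48 hours in 96-well plates. Abbreviation: GI50, concentration required for 50% inhibition of growth. TGI is the concentration that stops growth completely.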

Legend:
Assay in all cases: NCI anticancer screen, dose series, 48 h
[1] = test system: HL-60(TB) leukemia
[2] = test system: SR leukemia
[3] = test system: BT-549 breast
[4] = test system: T-47D breast
[5] = test system: HCT-15 colon
[6] = test system: K-562 leukemia
[7] = test system: SK-MEL-5 melanoma
[8] = test system: A549 NSCLC
[9] = test system: SF-295 CNS
[10] = test system: RXF 393 renal
[11] = test system: LOX IMVI melanoma
[12] = test system: OVCAR-5 ovarian
[13] = test system: MDA-MB-435
[14] = test system: HS 578T breast
[15] = test system: MALME-3M melanoma
[16] = test system: UACC-62 melanoma
[17] = test system: SNB-19 CNS
[18] = test system: MOLT-4 leukemia
[19] = test system: SF-539 CNS
[20] = test system: MCF7 breast
[21] = test system: HT29 colon
[22] = test system: SF-268 CNS
[23] = test system: SW-620 colon
[24] = test system: UO-31 renal
[25] = test system: DU-145 prostate
[26] = test system: IGROV1 ovarian
[27] = test system: M14 melanoma
[28] = test system: NCI-H23 lung
[29] = test system: EKVX NSCLC
[30] = test system: CAKI-1 renal
[31] = test system: CCRF-CEM leukemia
[32] = test system: 786-0 renal
[33] = test system: U251 CNS
[34] = test system: MDA-MB-468 breast
[35] = test system: OVCAR-4 ovarian
[36] = test system: SK-MEL-28 melanoma
[37] = test system: NCI-H226 lung
[38] = test system: MDA-MB-231 breast
[39] = test system: HCC-2998 colon
[40] = test system: A498 renal
[41] = test system: HOP-92 NSCLC
[42] = test system: COLO 205 colon
[43] = test system: PC-3 prostate
[44] = test system: KM12 colon
[45] = test system: RPMI-8226 leukemia
[46] = test system: SN12C renal
[47] = test system: UACC-257 melanoma
[48] = test system: NCI/ADR-RES ovarian
[49] = test system: ACHN renal
[50] = test system: NCI-H522 lung
[51] = test system: SK-OV-3 ovarian
[52] = test system: NCI-H460 lung
[53] = test system: OVCAR-3 ovarian
[54] = test system: OVCAR-8 ovarian
[55] = test system: TK-10 renal
[56] = test system: HOP-62 NSCLC

COc1ccc2nc(Cl)c(-c3cc(-c4ccccc4)nc(N)n3)cc2c1
GI50 [1]: 1.55 µM
TGI [1]: > 100 µM
GI50 [2]: 0.605 µM
TGI [2]: > 100 µM
GI50 [3]: 1.54 µM
TGI [3]: 3.32 µM
GI50 [4]: 7.94 µM
TGI [4]: > 100 µM
GI50 [5]: 2.67 µM
TGI [5]: 8.1 µM
GI50 [6]: 3.21 µM
TGI [6]: > 100 µM
GI50 [7]: 12.2 µM
TGI [7]: 24.6 µM
GI50 [8]: 21.5 µM
TGI [8]: > 100 µM
GI50 [9]: 11.4 µM
TGI [9]: 36.1 µM
GI50 [10]: 3.51 µM
TGI [10]: 13.7 µM
GI50 [11]: 1.92 µM
TGI [11]: 4.23 µM
GI50 [12]: 6.61 µM
TGI [12]: 29.1 µM
GI50 [13]: 12.8 µM
TGI [13]: 33 µM
GI50 [14]: 20.8 µM
TGI [14]: > 100 µM
GI50 [15]: 12.2 µM
TGI [15]: 27.4 µM
GI50 [16]: 11 µM
TGI [16]: 24 µM
GI50 [17]: 7.62 µM
TGI [17]: 23.5 µM
GI50 [18]: 1.74 µM
TGI [18]: > 100 µM
GI50 [19]: 1.89 µM
TGI [19]: 3.92 µM
GI50 [20]: 2.82 µM
TGI [20]: 12.8 µM
GI50 [21]: 5.11 µM
TGI [21]: 18.7 µM
GI50 [22]: 28.1 µM
TGI [22]: > 100 µM
GI50 [23]: 2.8 µM
TGI [23]: 8.76 µM
GI50 [24]: 4.3 µM
TGI [24]: 17.6 µM
GI50 [25]: 4.03 µM
TGI [25]: > 100 µM
GI50 [26]: 8.04 µM
TGI [26]: 23.7 µM
GI50 [27]: 4.33 µM
TGI [27]: 25.9 µM
GI50 [28]: 6.53 µM
TGI [28]: 23.4 µM
GI50 [29]: 16.9 µM
TGI [29]: 72.2 µM
GI50 [30]: 20.5 µM
TGI [30]: 71.4 µM
GI50 [31]: 2.58 µM
TGI [31]: > 100 µM
GI50 [32]: 1.45 µM
TGI [32]: 4.36 µM
GI50 [33]: 3.26 µM
TGI [33]: 13.2 µM
GI50 [34]: 4 µM
TGI [34]: 16.5 µM
GI50 [35]: 22.3 µM
TGI [35]: > 100 µM
GI50 [36]: 14.6 µM
TGI [36]: 33.8 µM
GI50 [37]: 7.23 µM
TGI [37]: 53.9 µM
GI50 [38]: 6.97 µM
TGI [38]: 38.8 µM
GI50 [39]: 10.6 µM
TGI [39]: 22.5 µM
GI50 [40]: 25.9 µM
TGI [40]: > 100 µM
GI50 [41]: 11.3 µM
TGI [41]: 62 µM
GI50 [42]: 10.9 µM
TGI [42]: 25.8 µM
GI50 [43]: 5.79 µM
TGI [43]: > 100 µM
GI50 [44]: 3.38 µM
TGI [44]: 12.6 µM
GI50 [45]: 3.31 µM
TGI [45]: > 100 µM
GI50 [46]: 4.71 µM
TGI [46]: 19.2 µM
GI50 [47]: 19 µM
TGI [47]: 66.5 µM
GI50 [48]: 4.77 µM
TGI [48]: 36 µM
GI50 [49]: 10.6 µM
TGI [49]: 30.8 µM
GI50 [50]: 11.7 µM
TGI [50]: 27.4 µM
GI50 [51]: 39.7 µM
TGI [51]: > 100 µM
GI50 [52]: 3.58 µM
TGI [52]: 13.5 µM
GI50 [53]: 3.71 µM
TGI [53]: 14.5 µM
GI50 [54]: 3.37 µM
TGI [54]: 18.5 µM
GI50 [55]: 22.1 µM
TGI [55]: 90.2 µM
GI50 [56]: 7.47 µM
TGI [56]: 31.1 µM
